Tests used:
[1] = Pharmacokinetics and tissue distribution in nude mice; assay type: in vivo
Description: (§1) Female ICR/CD-1 (18–20 g) mice were purchased from Harlan Laboratories (Indianapolis, IN), and female nude mice (nu/nu; 4–6 weeks) were purchased from Frederick Cancer Research and Development Center (Frederick, MD). All animal use and care procedures were approved by the Institutional Animal Care and Use Committee (IACUC) of the University of Alabama at Birmingham. All animals were fed with commercial diet and water ad libitum and were on an alternating 12 h light/dark cycle.
(§2) CD-1 and nude mice were randomly divided into groups of three, and were dosed either intravenously (5 mg/kg) or intraperitoneally (10 mg/kg) with BA-TPQ in PEG 400:ethanol:0.9% saline (57.1%:14.3%:28.6%). Before dosing, and at 5, 15, 30, 60 min, and 2, 4, 8, and 24 h after dosing, groups of animals (three/time point) were anesthetized, and blood was collected from the retro-orbital sinus into heparinized tubes. Plasma was obtained by centrifuging the blood samples at 14,000 rpm for 15 min. BA-TPQ was then extracted from plasma and stored at −80 °C. The brain, heart, kidneys, liver, lungs, and spleen were also collected at the same time points during necropsy, blotted on Whatman No. 1 filter paper, trimmed of extraneous fat and connective tissue, weighed, and homogenized in phosphate-buffered saline. The resulting homogenates were stored at −80 °C until further processing and analysis. Urine and feces were collected for 24 hr from mice housed in metabolic cages. After collection, the cages were also washed twice with 200 μL PBS, and the washes were collected and analyzed separately. The total urine was determined as the amount from the urine plus washes 1 and 2. Feces were homogenized in PBS, then extracted using the same procedure used for tissues.
(§3) Six hundred microliters of acetonitrile was added to 200 μL of plasma, urine, cage washes (first and second), or tissue/feces homogenate in an Eppendorf tube to precipitate proteins. After centrifugation at 14,000 rpm for 10 min, the supernatant was transferred to a glass tube and evaporated to dryness using a TurboVap® LV Concentration Workstation (Caliper Lifesciences, Hopkinton, MA). The residue was reconstituted with 500 μL ethyl acetate, sonicated for 10 min, and vortexed for 10 sec. Samples were then centrifuged again and the resulting supernatant was transferred to a new glass tube and evaporated to dryness. Finally, samples were reconstituted in 100 μL mobile phase, and 50 μL was injected into the HPLC system for analysis.
(§4) The averages of the BA-TPQ concentration in plasma and tissues following intravenous and intraperitoneal administration to three animals per time point were used for pharmacokinetic analyses using a two-compartmental model and a non-compartment model, respectively. The following pharmacokinetic parameters were estimated using Phoenix WinNonlin 6.0 (Mountain View, CA): area under the concentration-time curve (AUC, h·μg/mL), half-life (T½, h), maximum concentration (Cmax, μg/mL), time of the maximum concentration (Tmax, h), and clearance (CL, mL/h/kg), as applicable. Bioavailability (X) was calculated as X= [AUCip × doseiv]/[AUCiv × doseip].

[2] = Pharmacokinetics, excretion and strain comparison stated for CD-1 and nude mice together; assay type: in vivo
Description: as §1, §2, §3, §4

[3] = tested on: prostate and breast cancer cell lines; parameters: method as in PMID 19274441, PMID 19936915; conditions: cell lines with varying p53 status; cited from earlier work
[4] = female, nude (nu/nu), mouse, brain, IP 10 mg/kg
[5] = female, nude (nu/nu), mouse, brain, IV 5 mg/kg
[6] = female, nude (nu/nu), mouse, heart, IP 10 mg/kg
[7] = female, nude (nu/nu), mouse, heart, IV 5 mg/kg
[8] = female, nude (nu/nu), mouse, kidneys, IP 10 mg/kg
[9] = female, nude (nu/nu), mouse, kidneys, IV 5 mg/kg
[10] = female, nude (nu/nu), mouse, liver, IP 10 mg/kg
[11] = female, nude (nu/nu), mouse, liver, IV 5 mg/kg
[12] = female, nude (nu/nu), mouse, lungs, IP 10 mg/kg
[13] = female, nude (nu/nu), mouse, lungs, IV 5 mg/kg
[14] = female, nude (nu/nu), mouse, plasma, IP 10 mg/kg
[15] = female, nude (nu/nu), mouse, plasma, IV 5 mg/kg
[16] = female, nude (nu/nu), mouse, spleen, IP 10 mg/kg
[17] = female, nude (nu/nu), mouse, spleen, IV 5 mg/kg
[18] = IV 5 mg/kg, both strains, 24 hr collection

O=C1C(NCc2ccccc2)=CC2=NCCc3c[nH]c1c32 [BA-TPQ, 7-(benzylamino)-1,3,4,8-tetrahydropyrrolo[4,3,2-de]quinolin-8(1H)-one]
Time of greatest plasma concentration ([1]; IP 10 mg/kg): 1 h
Cl ([1]; brain, IP 10 mg/kg): 650 mL/min/kg
AUC [1, 4]: 770 ng·h/mL
Cmax [1, 4]: 90 ng/mL
Tmax [1, 4]: 60 min
half-life [1, 4]: 244 min
AUC [1, 5]: 340 ng·h/mL
Cmax [1, 5]: 620 ng/mL
clearance [1, 5]: 1730 mL/min/kg
half-life [1, 5]: 22.8 min
AUC [1, 6]: 7630 ng·h/mL
Cmax [1, 6]: 6380 ng/mL
Tmax [1, 6]: 15 min
half-life [1, 6]: 30 min
AUC [1, 7]: 6370 ng·h/mL
Cmax [1, 7]: 48800 ng/mL
clearance [1, 7]: 83.3 mL/min/kg
half-life [1, 7]: 5.4 min
AUC [1, 8]: 12600 ng·h/mL
Cmax [1, 8]: 10800 ng/mL
Tmax [1, 8]: 30 min
half-life [1, 8]: 29.4 min
AUC [1, 9]: 5480 ng·h/mL
Cmax [1, 9]: 20800 ng/mL
clearance [1, 9]: 100 mL/min/kg
half-life [1, 9]: 10.8 min
AUC [1, 10]: 2760 ng·h/mL
Cmax [1, 10]: 4560 ng/mL
Tmax [1, 10]: 4.8 min
half-life [1, 10]: 31.8 min
AUC [1, 11]: 710 ng·h/mL
Cmax [1, 11]: 2710 ng/mL
clearance [1, 11]: 817 mL/min/kg
half-life [1, 11]: 10.8 min
AUC [1, 12]: 13200 ng·h/mL
Cmax [1, 12]: 14800 ng/mL
Tmax [1, 12]: 4.8 min
half-life [1, 12]: 35.4 min
AUC [1, 13]: 9180 ng·h/mL
Cmax [1, 13]: 18400 ng/mL
clearance [1, 13]: 66.7 mL/min/kg
half-life [1, 13]: 21 min
AUC [1, 14]: 150 ng·h/mL
Cmax [1, 14]: 220 ng/mL
Tmax [1, 14]: 15 min
half-life [1, 14]: 70.2 min
bioavailability ([1]; female, nude (nu/nu), mouse, plasma, IP 10 mg/kg vs IV 5 mg/kg, read-out: Intraperitoneal bioavailability): 100%
AUC [1, 15]: 40 ng·h/mL
Cmax [1, 15]: 150 ng/mL
half-life [1, 15]: 10.2 min
AUC [1, 16]: 18300 ng·h/mL
Cmax [1, 16]: 31200 ng/mL
Tmax [1, 16]: 15 min
half-life [1, 16]: 99 min
AUC [1, 17]: 4980 ng·h/mL
Cmax [1, 17]: 11000 ng/mL
clearance [1, 17]: 117 mL/min/kg
half-life [1, 17]: 18.6 min
Cl ([1]; heart, IP 10 mg/kg): 83 mL/min/kg
Cl ([1]; kidneys, IP 10 mg/kg): 50 mL/min/kg
Cl ([1]; liver, IP 10 mg/kg): 217 mL/min/kg
Cl ([1]; lungs, IP 10 mg/kg): 50 mL/min/kg
Cl ([1]; plasma, IP 10 mg/kg): 3920 mL/min/kg
Cl ([1]; spleen, IP 10 mg/kg): 33 mL/min/kg
Amount excreted in the feces ([2]; IP 10 mg/kg): less than 1%
Amount excreted in the urine ([2]; IP 10 mg/kg, first 24 h after dosing): less than 0.02 % of the administered dose
AUC in the brain, nude mice versus CD-1 mice ([2]; IP injection): ~ 5 fold
Accumulation in the liver, nude mice versus CD-1 mice ([2]; IP injection): ~ 18 fold
Detectability in the lungs at 24 h ([2]; IV 5 mg/kg, both CD-1 and nude mice): still detectable
Amount excreted in feces [2, 18]: less than 1 % of the administered dose
Amount excreted in the urine [2, 18]: less than 0.1 % of the administered dose
Detectability in plasma ([2]; IV 5 mg/kg, either strain of mice): no longer detectable in plasma after 2 h
Exposure of the heart (AUC), nude mice versus CD-1 mice ([2]; IV injection): approximately 6 fold
bioavailability ([2]; female, CD-1 and nude (nu/nu), mouse, plasma, ip, 10 mg/kg, mice, IP injection, read-out: Intraperitoneal bioavailability (authors' overall estimate)): ~70%
Blood-brain barrier passage (AUC in brain comparable to plasma) ([2]; mice): can cross the blood-brain barrier
Intraperitoneal bioavailability (authors' overall estimate) ([2]; mice, IP injection): > 70%
In vitro growth of prostate and breast cancer cell lines [3]: inhibit in vitro growth

— PMC2920546, “Preclinical Pharmacology of BA-TPQ, a Novel Synthetic Iminoquinone Anticancer Agent” (Marine Drugs, 2010)
